Test results from patent US12171230B2, “Herbicidal compositions” (Bayer Aktiengesellschaft, priority 2018, dated 2024).
Values joined by “and” are separate entries in the source; they are usually repeats but may differ in a detail not shown here. Equal entries are not always repeated.

What was measured:
Assay type in all cases: in vivo
Abutilon theophrasti [1] = assay: Post-emergence herbicidal action against Abutilon theophrasti; settings: 21 DAT
Polygonum convolvulus = assay: Post-emergence herbicidal action against Polygonum convolvulus
Excerpt: The following abbreviations are used in the description and the tables that follow: • g of a.i./ha=grams of active substance (active ingredient) (=100% active compound) per hectare; • The sum total of the effects of the individual applications is reported under E^A; • expected values according to Colby are each reported under E^C.
The rating period is reported in days after application (DAT).

Pharbitis purpurea = assay: Post-emergence herbicidal action against Pharbitis purpurea; settings: for Herbicidal action 21 DAT [%] against Pharbitis purpurea: post-emergence
In short: (§1)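 Pot-grown plants, three weeks old at the three-leaf stage, received foliar sprays of various dosages. Visual assessment relative to untreated plants followed 3 to 4 weeks later.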

Malva pusilia = assay: Post-emergence herbicidal action against Malva pusilia; settings: 42 DAT; 100 g a.i./ha
Bromus sterilis [2] = assay: Post-emergence herbicidal action against Bromus sterilis; settings: 14 DAT; 1 g a.i./ha
Viola tricolor [3] = assay: Post-emergence herbicidal action against Viola tricolor
Ephilobium hirsutum = assay: Post-emergence herbicidal action against Ephilobium hirsutum; settings: 100 g of a.i./ha
Protocol: (§2) When the observed efficacies exceed the formal sum total of the values of the tests with individual applications, they also exceed the expected value according to Colby, which is calculated using the formula below and is likewise regarded as an indication of synergism (cf. S. R. Colby; in Weeds 15 (1967) p. 20 to 22): E^C=A+B−([…])
(§3) Here: • A=efficacy of the active compound (A) in % at an application rate of a g a.i./ha; • B=efficacy of the active compound (B) in % at an application rate of b g a.i./ha; • E^C=expected value of the effect of the combination (A)+(B) in % at the combined application rate a+b g a.i./ha.
(§4) Seeds or rhizome pieces of mono- and dicotyledonous weeds are placed in sandy loam in pots, covered with soil and grown in a greenhouse under good growth conditions (temperature, air humidity, water supply). Three weeks after sowing, the test plants were treated at the three-leaf stage with the compositions according to the invention. The compositions according to the invention formulated as spray powders or as emulsion concentrates were sprayed onto the green plant parts in various dosages with an application rate of 300 to 800 l/ha of water (equivalent). After the test plants have been left to stand in the greenhouse under optimal growth conditions for about 3 to 4 weeks, the action of the preparations is scored visually in comparison to untreated controls. […]

Abutilon theophrasti [4] = assay: Post-emergence herbicidal action against Abutilon theophrasti; settings: 100 g of a.i./ha
Centaurea cyano = assay: Post-emergence herbicidal action against Centaurea cyano
In short: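 Formulations (spray powders or emulsion concentrates) applied at various doses onto foliage using 300 to 800 l/ha water; plants treated at three-leaf stage, three weeks post-sowing in sandy loam under greenhouse conditions.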

Bromus sterilis [5] = assay: Post-emergence herbicidal action against Bromus sterilis
[6] = test system: Lolium rigidum (resistant biotype); assay: Post-emergence herbicidal action against Lolium rigidum (resistant biotype)
Lolium rigidum [7] = assay: Post-emergence herbicidal action against Lolium rigidum
Viola tricolor [8] = assay: Post-emergence herbicidal action against Viola tricolor; remark: listed apart in the source
Bellis perenne = assay: Post-emergence herbicidal action against Bellis perenne; settings: 100 g of a.i./ha
Protocol: as §2, §3, §4

Lolium rigidum [9] = assay: Post-emergence herbicidal action against Lolium rigidum; remark: listed apart in the source
Phalaris minor = assay: Post-emergence herbicidal action against Phalaris minor
Veronica hederifolia [10] = assay: Post-emergence herbicidal action against Veronica hederifolia; settings: 28 DAT; 1 g a.i./ha
Veronica hederifolia [11] = assay: as above
Brachiaria platyphylla = assay: Post-emergence herbicidal action against Brachiaria platyphylla
In short: as §1

O=C(Nc1ccc(F)cc1F)c1cccnc1Oc1cccc(C(F)(F)F)c1 [(B2.18) Diflufenican]
Herbicidal action against Abutilon theophrasti (Abutilon theophrasti [1]; 30 g of a.i./ha): 10%
Herbicidal action against Abutilon theophrasti (Abutilon theophrasti [1]; 90 g of a.i./ha): 10%
Herbicidal action against Abutilon theophrasti (Abutilon theophrasti [1]; 270 g of a.i./ha): 25%
Herbicidal action 21 DAT against Polygonum convolvulus (Polygonum convolvulus; g of a.i./ha: 90, 30, 45, 45 + 90, 45 + 30, 30 g of a.i./ha): 10%
Herbicidal action 21 DAT against Polygonum convolvulus (Polygonum convolvulus; g of a.i./ha: 90, 30, 45, 45 + 90, 45 + 30, 90 g of a.i./ha): 20%

C=C[C@]1(C(=O)N[C@H]2CO[C@@H](C(=O)OC)C2)CC(c2cc(F)cc(F)c2)=NO1 (relative stereo) [Compound A3, methyl rel-(2R,4R)-4-[[(5S)-3-(3,5-difluorophenyl)-5-vinyl-4H-isoxazole-5-carbonyl]amino]tetrahydrofuran-2-carboxylate]
Herbicidal action 21 DAT against Pharbitis purpurea (Pharbitis purpurea; 5 g of a.i./ha): 80%
Herbicidal action 21 DAT [%] against Pharbitis purpurea (Pharbitis purpurea; 5 g of a.i./ha): 80%
Herbicidal action 21 DAT [%] against Pharbitis purpurea (Pharbitis purpurea; 21 DAT, 5 g of a.i./ha): 85%
Herbicidal action 21 DAT [%] against Pharbitis purpurea (Pharbitis purpurea; 21 DAT, 15 g of a.i./ha): 85%
Herbicidal action (Malva pusilia): 50%
Herbicidal action (Bromus sterilis [2]): 30%
Herbicidal action in [%] 14 DAT against Viola tricolor (Viola tricolor [3]; 1 g of a.i./ha): 50%
Herbicidal action in [%] 28 DAT against Viola tricolor (Viola tricolor [3]; 1 g of a.i./ha): 15%
Herbicidal action in [%] 28 DAT against Viola tricolor (Viola tricolor [3]; 4 g of a.i./ha): 30%
Herbicidal action 43 DAT [%] against Ephilobium hirsutum (Ephilobium hirsutum): 77%
Herbicidal action 37 DAT [%] against Abutilon theophrasti (Abutilon theophrasti [4]): 75%
Herbicidal action 14 DAT against Centaurea cyanus (Centaurea cyano; 1 g of a.i./ha): 20%
Herbicidal action 28 DAT against Centaurea cyanus (Centaurea cyano; 1 g of a.i./ha): 10% and 0%
Herbicidal action in [%] 14 DAT against Centaurea cyanus (Centaurea cyano; 1 g of a.i./ha): 30%
Herbicidal action in [%] 28 DAT against Centaurea cyanus (Centaurea cyano; 1 g of a.i./ha): 10%
Herbicidal action 14 DAT against Centaurea cyanus (Centaurea cyano; 4 g of a.i./ha): 50%
Herbicidal action 28 DAT against Centaurea cyanus (Centaurea cyano; 4 g of a.i./ha): 20%
Herbicidal action in [%] 14 DAT against Centaurea cyanus (Centaurea cyano; 4 g of a.i./ha): 50%
Herbicidal action in [%] 28 DAT against Centaurea cyanus (Centaurea cyano; 4 g of a.i./ha): 50%
Herbicidal action against Centaurea cyanus (Centaurea cyano; 14 DAT, 16 g of a.i./ha): 80%
Herbicidal action in [%] 14 DAT against Centaurea cyanus (Centaurea cyano; 16 g of a.i./ha): 70%
Herbicidal action in [%] 28 DAT against Centaurea cyanus (Centaurea cyano; 16 g of a.i./ha): 40% and 70%
Herbicidal action in [%] 28 DAT against Centaurea cyano (Centaurea cyano; 16 g of a.i./ha, post-emergence): 70%
Herbicidal action against Centaurea cyanus (Centaurea cyano; 28 DAT, 16 g of a.i./ha): 40%
Herbicidal action 28 DAT against Centaurea cyanus (Centaurea cyano; (Z61) post-emergence, g of a.i./ha: 1, 270, 90, 1 + 270, 1 + 90): 0%
Herbicidal action against Bromus sterilis (Bromus sterilis [5]; 14 DAT, 1 g of a.i./ha): 15%
Herbicidal action against Bromus sterilis (Bromus sterilis [5]; 14 DAT, 4 g of a.i./ha): 85%
Herbicidal action against Bromus sterilis (Bromus sterilis [5]; 28 DAT, 1 g of a.i./ha): 15%
Herbicidal action in [%] 14 DAT against Lolium rigidum (resistant biotype) ([6]; 1 g of a.i./ha): 15% and 30%
Herbicidal action in [%] 28 DAT against Lolium rigidum (resistant biotype) ([6]; 1 g of a.i./ha): 0%
Herbicidal action in [%] 14 DAT against Lolium rigidum (resistant biotype) ([6]; 4 g of a.i./ha): 40% and 60%
Herbicidal action against Lolium rigidum (Lolium rigidum [7]; 14 DAT, 1 g of a.i./ha): 35%
Herbicidal action against Lolium rigidum (Lolium rigidum [7]; 28 DAT, 1 g of a.i./ha): 15%
Herbicidal action against Lolium rigidum (Lolium rigidum [7]; 28 DAT, 4 g of a.i./ha): 50%
Herbicidal action against Viola tricolor (Viola tricolor [8]; 14 DAT, 1 g of a.i./ha): 50%
Herbicidal action against Viola tricolor (Viola tricolor [8]; 14 DAT, 16 g of a.i./ha): 85%
Herbicidal action against Viola tricolor (Viola tricolor [8]; 28 DAT, 1 g of a.i./ha): 15%
Herbicidal action against Viola tricolor (Viola tricolor [8]; 28 DAT, 16 g of a.i./ha): 20%
Herbicidal action 43 DAT [%] against Bellis perenne (Bellis perenne): 0%
Herbicidal action in [%] 14 DAT against Lolium rigidum (Lolium rigidum [9]; 1 g of a.i./ha): 35% and 40%
Herbicidal action in [%] 28 DAT against Lolium rigidum (Lolium rigidum [9]; 1 g of a.i./ha): 15% and 10%
Herbicidal action in [%] 14 DAT against Lolium rigidum (Lolium rigidum [9]; 4 g of a.i./ha): 85%
Herbicidal action in [%] 28 DAT against Lolium rigidum (Lolium rigidum [9]; 4 g of a.i./ha): 50% and 70%
Herbicidal action (Phalaris minor; 14 DAT, 1 g a.i./ha): 20%
Herbicidal action (Phalaris minor; 14 DAT, 4 g a.i./ha): 85%
Herbicidal action (Phalaris minor; 14 DAT, 16 g a.i./ha): 85%
Herbicidal action (Phalaris minor; 28 DAT, 1 g a.i./ha): 10%
Herbicidal action (Phalaris minor; 28 DAT, 4 g a.i./ha): 85%
Herbicidal action (Phalaris minor; 28 DAT, 16 g a.i./ha): 85%
Herbicidal action (Veronica hederifolia [10]): 30%
Herbicidal action against Veronica hederifolia (Veronica hederifolia [11]; 14 DAT, 1 g of a.i./ha): 30%
Herbicidal action against Veronica hederifolia (Veronica hederifolia [11]; 14 DAT, 16 g of a.i./ha): 40%
Herbicidal action against Veronica hederifolia (Veronica hederifolia [11]; 28 DAT, 16 g of a.i./ha): 50%
Herbicidal action 21 DAT [%] against Brachiaria platyphylla (Brachiaria platyphylla; 1.7 g of a.i./ha): 20%
Herbicidal action 21 DAT against Brachiaria platyphylla (Brachiaria platyphylla; 1.7 g of a.i./ha): 20%
Herbicidal action 21 DAT [%] against Brachiaria platyphylla (Brachiaria platyphylla; 1.7 g of a.i./ha, post-emergence, block with (B1.14) Tembotrione): 20%
Herbicidal action 21 DAT [%] against Brachiaria platyphylla (Brachiaria platyphylla; 1.7 g of a.i./ha, post-emergence, block with (B9.10) Saflufenacil): 20%
Herbicidal action 21 DAT [%] against Brachiaria platyphylla (Brachiaria platyphylla; 5 g of a.i./ha): 80%
